Data reported in patent publication EP0500953B1, “ANTINEOPLASTIC EFFECT POTENTIATOR AND ANTINEOPLASTIC AGENT” (TAIHO PHARMACEUTICAL COMPANY LIMITED, priority 1990, dated 1992).

Key:
[1] = test system: mouse colon cancer line COLON 26; assay: Tumor growth inhibition, subdermally transplanted COLON 26 tumor fragment in mice (Example 1); type: in vivo; details: Dosage 20.0 mg/kg, orally once a day for 9 consecutive days, tumor weight on day 12
Procedure: (§1) A 2 mm-diameter fragment of mouse colon cancer line COLON 26 was subdermally transplanted at the back of male CDF1 mice. Beginning 24 hours after transplantation of the tumor fragment, a solution or suspension of tegafur-uracil combination drug, 5-fluorouracil and calcium folinate, the amounts of which are indicated below in Table 1, in 0.5% sodium calboxymethylcellulose (CMC) solution was administered orally once a day for 9 consecutive days. On day 12 after transplantation of the tumor fragment, the tumor was enucleated and weighed. From the ratio of the mean tumor weight in each treatment group to that in the control group, the tumor growth inhibition rate was calculated. On the other hand, the body weight of mice on the day of tumor fragment transplantation was subtracted from the body weight of mice exclusive of tumors on day 12 after transplantation and the difference was used as the index of drug-induced systemic toxicity. Furthermore, the stools passed by mice in each treatment group were examined daily and, in accordance with the method described in Japanese Journal of Cancer Research Vol. 81, 188-195 (1990), the stool property was rated on the following scale: -: normal stool (hard pellets with little moisture), ±: loose stool (normal form, moist and soft), +: loose stool (undefinable form, very moist and soft), ++: diarrheal stool (formless, watery).

[2] = Stool property rating (digestive organ toxicity), COLON 26-bearing mice (Example 1); type: in vivo, male CDF1 mice; set-up: key: -: normal stool (hard pellets with little moisture); ±: loose stool (normal form, moist and soft); +: loose stool (undefinable form, very moist and soft); ++: diarrheal stool (formless, watery); details: Dosage 20.0 mg/kg, orally once a day for 9 days
Procedure: as §1

[3] = Body weight change as index of drug-induced systemic toxicity, COLON 26-bearing mice (Example 1); type: in vivo, male CDF1 mice; details: Dosage 20.0 mg/kg, orally once a day for 9 days, day 12 vs day of transplantation
Procedure: as §1

## O=c1[nH]cc(F)c(=O)[nH]1 [5-Fluorouracil, 5-fluorouracil]
[1]; Folinic acid 0 mg/kg
  Tumor Growth inhibition rate (%): 43%
[1]; Folinic acid 100 mg/kg
  Tumor Growth inhibition rate (%): 56%
[2]; Folinic acid 0 mg/kg
  Stool property: ±
[2]; Folinic acid 100 mg/kg
  Stool property: ++
[3]; Folinic acid 0 mg/kg
  Change in body weight (g): +1.7 g
[3]; Folinic acid 100 mg/kg
  Change in body weight (g): +0.1 g
